Tests used:
[1] = target: T1, TCR / mCD1d-glycolipid complex (Mus musculus, UniProt P11609); experiment: Surface plasmon resonance: TCR binding to mCD1d-glycolipid complexes
T1 sequence (P11609 19-297): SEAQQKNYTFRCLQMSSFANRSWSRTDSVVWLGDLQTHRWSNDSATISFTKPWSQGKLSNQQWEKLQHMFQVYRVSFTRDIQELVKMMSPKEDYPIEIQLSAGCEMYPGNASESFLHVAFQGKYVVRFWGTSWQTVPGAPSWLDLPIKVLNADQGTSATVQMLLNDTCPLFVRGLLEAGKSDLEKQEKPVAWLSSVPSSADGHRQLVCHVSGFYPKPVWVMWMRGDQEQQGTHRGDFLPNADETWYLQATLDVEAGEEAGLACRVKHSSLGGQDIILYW
T1 sequence (P01887 21-119 partner): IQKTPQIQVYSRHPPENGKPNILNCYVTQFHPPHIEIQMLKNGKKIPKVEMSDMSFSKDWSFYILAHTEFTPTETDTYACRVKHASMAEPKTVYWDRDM
Method: SPR studies were conducted using a Biacore 3000 (Biacore). Glycolipids were dissolved at 1 mg/ml in DMSO and before loading were diluted to 0.25 mg/ml with vehicle solution (50 mM Tris-HCl pH 7.0, 4.8 mg/ml sucrose, 0.5 mg/ml deoxycholate and 0.022% Tween-20), heated for 20 minutes at 80° C. After cooling 1 μg of each lipid was incubated with 10 μg enzymatically biotinylated mCD1d overnight at room temperature. In one embodiment, 400-600 response units (RU) of mCD1d-glycolipid complexes were immobilized onto a CA capture chip (Biacore). A reference surface was generated in another flow channel with unloaded mCD1d immobilized at RU of 500. During the association phase, a series of increasing concentrations of TCR (in 10 mM HEPES, 150 mM NaCl, 3.0 mM EDTA, pH 7.4) in duplicate were injected for 80 seconds and the dissociation phase (running buffer only) was monitored over 45 minutes. Experiments were carried out at 25° C. with a flow rate of 30 μl/min and performed at least two to three times, each time with a different batch of TCR preparation. Kinetic parameters were calculated after subtracting the response to mCD1d molecules in the reference channel, using a simple Langmuir 1:1 model in the BIA evaluation software version 4.1. One representative sensorgram for each lipid is shown. […]

CD1d = target: T2, CD1d (Mus musculus, UniProt P11609); experiment: Buried surface area between glycolipid and CD1d in crystal structures; conditions: mCD1d-glycolipid-mTCR crystal structures
T2 construct: made in house
T2 sequence (P11609 19-297 limits assumed): T1 sequence (P11609 19-297)
Method: First, the ternary mCD1d-lipid-mTCR complexes using the glycolipids 4ClPhC-α-GalCer (3a) and PyrC-α-GalCer (3c) were prepared as described previously for NU-α-GalCer, and purified by size exclusion chromatography (SEC) using Superdex S200 10/300 GL (GE Healthcare). Both mCD1d-4ClPhC-α-GalCer-mTCR and mCD1d-PyrC-α-GalCer-mTCR complexes were concentrated to 3.5 mg/ml in SEC buffer (50 mM Hepes, pH 7.5, 150 mM NaCl). Crystals were grown at 22.3° C. by sitting drop vapor diffusion while by mixing 0.5 μl mCD1d-4ClPhC-α-GalCer-mTCR and 0.5 μl precipitate (20% PEG 4000, 0.2 M sodium thiocyanate) or by mixing 1 μl mCD1d-PyrC-α-GalCer-mTCR and […] precipitate (20% PEG 4000, 0.2 M di-ammonium hydrogen citrate), respectively.
Crystals were flash-cooled at 100° K in a mother liquor containing 30% glycerol. […]
The asymmetric unit contains one mCD1d-glycolipid-TCR molecule with estimated solvent content of 57.3% based on a Matthews' coefficient (Vm) of 2.88 A^3/Da for 4ClPhC-α-GalCer and 56.9% (VM) of 2.86 A^3/Da for PyrC-α-GalCer. Crystal structures were determined by molecular replacement using MOLREP as part of the CCP4 suite. […]

solid tumours = conditions: Phase I study; cited from earlier work

## CCCCCCCCCCCCCCCCCCCCCCCCCC(=O)N[C@@H](CO[C@H]1O[C@H](CO)[C@H](O)[C@H](O)[C@H]1O)[C@H](O)[C@H](O)CCCCCCCCCCCCCC [α-GalCer, α-galactosyl ceramide]
[1]
  Kd: 11 nM
CD1d
  buried surface area between glycolipid and CD1d: 1,027 Å^2
Solid tumours
  treatment of solid tumours: ineffective

— patent US9321796B2, “Galactopyranosyl derivatives useful as medicaments” (Universiteit Gent, priority 2012, dated 2016)
